2 molecules from article PMC5666694 (Antiviral research, 2017) can be followed below.

Each structure is given as a SMILES string. Counter-ions that a name gives are not always drawn.

In the assay the test system is HIV/EBOV pseudovirion. The assay is classed as cell-based, Ebolavirus Zaire.

On to `Cc1cn([C@H]2C[C@H](N=[N+]=[N-])[C@@H](CO)O2)c(=O)[nH]c1=O` [AZT, Azidothymidine], for which the “Antiviral effect by time of compound addition” value is recorded as “still effective even when it was introduced at a very late time points (>8 h)”. In the case of `CN1[C@@H]2CC[C@H]1C[C@@H](OC(c1ccccc1)c1ccccc1)C2` [benztropine, Benztropine mesylate], the “Antiviral effect by time of compound addition” value is “started to lose its inhibitory effect when it was added at 2 h post entry and beyond”.
